Two molecules from patent US10869931B2, “Polyethylene glycol-modified angiogenesis inhibitor HM-1 and application thereof” (NANJING ANJI BIOLOGICAL TECHNOLOGY CO.,LTD, priority 2016, dated 2020) can be followed below.

Where no end group is shown, it is not given here.

Broadly, the AUC(0-inf) is total exposure, with the tail of the curve extrapolated. For orientation: MRT inf means a mean duration of stay, worked out from the concentration-time curve.

Data set [1] is described as follows: Half-life / pharmacokinetics of mPEG-HM-1 and HM-1. The settings on record: in vivo.
In data set [2] the test system is Gastric cancer tumor cells. The data set is described as follows: MTT proliferation inhibition, gastric cancer cells. The following applies: 48 h. Also noted: concentration or dose not given beside the values. Format: cell-based, human. As for the experimental part:
(§1) The activity of mPEG-HM-1 to inhibit the growth of various tumor cells was examined by MTT assay. The tumor cells were cultured to a concentration of 90% or more in a 37° C., 5% CO2 incubator and collected by trypsinization. The cells were resuspended in the culture medium and counted under a microscope to adjust the cell concentration to 2×10^4 cells/mL, the cell suspension was inoculated into a 96-well plate at 100 μL/well and incubated overnight at 37° C. in a 5% CO2 incubator. mPEG-HM-1 was diluted with the culture solution to each predetermined concentration. Docetaxel is diluted to the final concentration with the culture medium. After the cells were fully attached, each dilution was added to a 96-well plate (100 μL/well). The mPEG-HM-1 dilution was added as a drug-administered group, and docetaxel was added as a positive control group, and a culture solution without any drug was used as a negative control group. Incubate for 48 h at 37° C. in a 5% CO2 incubator. 5 mg/mL of MTT was added to a 96-well plate at 20 μL per well, and incubation was continued for 4 hours. The medium was aspirated, dissolved in 150 μL of DMSO per well, and gently mixed by shaking for 10 min. The absorbance was measured at a measurement wavelength of 570 nm and a reference wavelength of 630 nm using a microplate reader, and the rate of growth inhibition (proliferation inhibition, PI) was calculated. The formula is as follows: PI (%)=1−administration group/negative group
(§2) The test was repeated 3 times independently, and the results obtained by the test were expressed as mean±SD, and the test results are shown in Table 15 to Table 18.

Data set [3] has as its system Head and neck cancer tumor cells. The data set is described as follows: MTT proliferation inhibition, head and neck cancer cells. The class given is cell-based, human. Also noted: concentration or dose not given beside the values. The following applies: 48 h. As for the experimental part: as §1, §2
The subject of data set [4] is Esophageal cancer tumor cells. The data set is described as follows: MTT proliferation inhibition, esophageal cancer cells. The class given is cell-based, human. Also noted: concentration or dose not given beside the values. The following applies: 48 h. The procedure: as §1, §2
Data set [5] concerns Thyroid cancer tumor cells. The data set is described as follows: MTT proliferation inhibition, thyroid cancer cells. The class given is cell-based, human. The settings on record: 48 h. The arrangement: concentration or dose not given beside the values. The procedure: as §1, §2
The next data set relates to Brain tumor cells. Kind of data set: MTT proliferation inhibition, brain tumor cells. Format: cell-based, human. Also noted: concentration or dose not given beside the values. The settings on record: 48 h. As for the experimental part:
as §1, §2

In another data set the test system is Hemangioma tumor cells. Kind of data set: MTT proliferation inhibition, hemangioma cells. The class given is cell-based, human. The arrangement: concentration or dose not given beside the values. The settings on record: 48 h. As for the experimental part:
as §1, §2

For data set [6], the system named is Bladder Cancer tumor cells. The data set is described as follows: MTT proliferation inhibition, bladder cancer cells. The class given is cell-based, human. Also noted: concentration or dose not given beside the values. The following applies: 48 h. As for the experimental part: as §1, §2
Another data set has as its system sarcoma tumor cells. Kind of data set: MTT proliferation inhibition, sarcoma cells. Format: cell-based, human. Also noted: concentration or dose not given beside the values. The settings on record: 48 h. The procedure: as §1, §2
Data set [7] deals with Ovarian cancer tumor cells. The data set is described as follows: MTT proliferation inhibition, ovarian cancer cells. Format: cell-based, human. The arrangement: concentration or dose not given beside the values. The following applies: 48 h. The procedure: as §1, §2
In data set [8] the test system is Prostate cancer tumor cells. Kind of data set: MTT proliferation inhibition, prostate cancer cells. The arrangement: concentration or dose not given beside the values. The class given is cell-based, human. The following applies: 48 h. The procedure: as §1, §2
Data set [9] deals with Pancreatic cancer tumor cells. Kind of data set: MTT proliferation inhibition, pancreatic cancer cells. The settings on record: 48 h. The arrangement: concentration or dose not given beside the values. Format: cell-based, human. As for the experimental part:
as §1, §2

For data set [10], the system named is Kidney cancer tumor cells. The data set is described as follows: MTT proliferation inhibition, kidney cancer cells. The class given is cell-based, human. Also noted: concentration or dose not given beside the values. The following applies: 48 h. The procedure: as §1, §2
Data set [11] concerns Colorectal cancer tumor cells. The data set is described as follows: MTT proliferation inhibition, colorectal cancer cells. Also noted: concentration or dose not given beside the values. Format: cell-based, human. The settings on record: 48 h. The procedure:
as §1, §2

The next data set concerns Lung cancer tumor cells. The data set is described as follows: MTT proliferation inhibition, lung cancer cells. Format: cell-based, human. The arrangement: concentration or dose not given beside the values. The settings on record: 48 h. The procedure:
as §1, §2

In a further data set the test system is Liver cancer tumor cells. Kind of data set: MTT proliferation inhibition, liver cancer cells. The class given is cell-based, human. The arrangement: concentration or dose not given beside the values. The following applies: 48 h. The procedure:
as §1, §2

The subject of data set [12] is Cervical cancer tumor cells. The data set is described as follows: MTT proliferation inhibition, cervical cancer cells. Format: cell-based, human. Also noted: concentration or dose not given beside the values. The following applies: 48 h. As for the experimental part:
as §1, §2

The subject of data set [13] is Breast cancer tumor cells. The data set is described as follows: MTT proliferation inhibition, breast cancer cells. The class given is cell-based, human. The following applies: 48 h. The arrangement: concentration or dose not given beside the values. The procedure: as §1, §2
The subject of data set [14] is Uterine cancer tumor cells. The data set is described as follows: MTT proliferation inhibition, uterine cancer cells. The class given is cell-based, human. Also noted: concentration or dose not given beside the values. The following applies: 48 h. As for the experimental part: as §1, §2
The test system of the next data set is Melanoma tumor cells. The data set is described as follows: MTT proliferation inhibition, melanoma cells. Format: cell-based, human. The settings on record: 48 h. Also noted: concentration or dose not given beside the values. The procedure:
as §1, §2

In [1], “RGADRAGGGGRGD [HM-1, Arg-Gly-Ala-Asp-Arg-Ala-Gly-Gly-Gly-Gly-Arg-Gly-Asp]” came in with a total exposure AUC(0-inf) of 32800 ± 8230 ng·h/mL and an MRT inf of 4.02 ± 0.78 min.

For the molecule `CC(=O)O[C@@]12CO[C@@H]1C[C@H](O)[C@@]1(C)C(=O)[C@H](O)C3=C(C)[C@@H](OC(=O)[C@H](O)[C@@H](NC(=O)OC(C)(C)C)c4ccccc4)C[C@@](O)([C@@H](OC(=O)c4ccccc4)[C@H]21)C3(C)C` [Docetaxel, reference compound], the “rate of growth inhibition” value in [2] turned out to be 77.34 ± 22.18%; in data set [3], 49.23 ± 10.01%; in data set [4] it was 60.18 ± 17.02%; in [5] it was 56.21 ± 14.28%; in the data set on Brain tumor cells it was 59.23 ± 16.21%; with Hemangioma tumor cells, 56.92 ± 16.76%. For the same molecule, the “rate of growth inhibition” value was 46.72 ± 13.65% in [6]; 51.31 ± 10.49% in the data set with sarcoma tumor cells; 85.12 ± 19.39% in data set [7]; 45.62 ± 14.03% in data set [8]; 71.13 ± 20.13% in data set [9]; 72.93 ± 18.31% in data set [10]. Moreover, the “rate of growth inhibition” value is listed as 74.59 ± 20.33% in data set [11]; 68.23 ± 18.32% in the data set on Lung cancer tumor cells; 66.70 ± 17.25% in the data set on Liver cancer tumor cells; 80.21 ± 19.54% in [12]; 65.31 ± 21.44% in data set [13]; 80.25 ± 22.18% in data set [14]. The “rate of growth inhibition” value with Melanoma tumor cells was determined as 83.49 ± 23.27%.
